{"source": "patent US5278285A", "about": "“Variant of Kunitz-type inhibitor derived from the α3-chain of human type VI collagen produced by recombinant DNA technology” (Bayer Aktiengesellschaft, priority 1990, dated 1994)", "key": {"[1]": {"settings": "application during open heart surgery, clinical studies; cited from earlier work"}, "human trypsin": {"test_system": "human trypsin", "test": "Trypsin inhibition assay", "type": "biochemical", "settings": "substrate benzoyl-L-arginine p-nitroanilide; product expressed in yeast", "description": "The trypsin activity was determined using the method of geiger & Fritz, Methods of Enzymatic Analysis, Vol. V, 3rd ed., Bergmeyer (ed.), Verlag Chemie, Weinheim (1984), p. 121 with benzoyl-L-arginine p-nitroanilide as substrate. The liberated p-nitroaniline was measured in a spectrophotometer at 405 nm. Enzyme and inhibitor were preincubated for 15 min before addition of the substrate."}}, "data": [{"substance": "aprotinin", "values": [{"measurement": "blood loss", "setting": "[1]", "value": "reduces blood loss significantly"}]}, {"substance": "α3(VI) inhibitor: Kunitz type proteinase inhibitor, aminoacid pos. 2873 to 2931 of the C5 domain of human type VI collagen α3 chain, expressed in yeast (pKol 100)", "values": [{"measurement": "trypsin inhibition (biological activity)", "setting": "human trypsin", "value": "inhibits human trypsin"}]}]}
